From US8859620B2, “Phthalanilate compounds and methods of use” (University of Notre Dame du Lac, priority 2009, dated 2014)
In brackets after ≈: the same amount, converted by molar mass. Read-outs that look alike come from different tables or passages of the source. Values belong to the compound of their own block, whether it stands above or below them.

How the values were obtained:
[1] = tested on: S. aureus NRS100 (Mec^R); assay: MIC against S. aureus NRS100 (Table 14); assay type: cell-based, Staphylococcus aureus; details: for MIC: compounds dissolved in DMSO or 1% sodium carbonate; for inhibitory activity (in words): Table 14
Method: The recited compounds were dissolved in DMSO or in 1% sodium carbonate and transferred into micro titer plate to final concentration of 1000 μg/mL.

[2] = tested on: S. aureus NRS11 (Mec^S); assay: MIC against S. aureus NRS11 (Table 13); assay type: cell-based, Staphylococcus aureus; details: for MIC: compounds dissolved in DMSO or 1% sodium carbonate; for inhibitory properties (in words): Table 13
Method: All recited compounds were dissolved in DMSO or in 1% sodium carbonate and transferred to micro titer plates to final concentrations of 1000 μg/mL.

[3] = biological target: OXA-10 (class D β-lactamase) (Pseudomonas aeruginosa, UniProt P14489); assay: β-Lactamase assay (nitrocefin colour change), OXA-10; assay type: biochemical; details: Table 10; class symbols x/xx/xxx, key not given
OXA-10 (class D β-lactamase), sequence (P14489 20-266, species assumed): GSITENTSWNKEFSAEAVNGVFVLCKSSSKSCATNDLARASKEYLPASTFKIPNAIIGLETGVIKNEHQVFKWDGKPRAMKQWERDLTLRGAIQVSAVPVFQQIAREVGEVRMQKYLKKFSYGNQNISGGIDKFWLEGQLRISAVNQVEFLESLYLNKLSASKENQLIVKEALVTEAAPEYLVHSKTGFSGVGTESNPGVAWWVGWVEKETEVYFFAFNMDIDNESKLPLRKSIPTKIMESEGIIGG
Method: (§1) β-Lactamase Assays (TEM-1, P99, and OXA-10): The activity of the compounds of the invention (inhibitors) toward β-lactamases was evaluated using 96 well plates. The reaction mixture included 10 mM sodium phosphate, pH 7.0, 150 mM sodium chloride, 0.01% Triton X-100, 100 μM nitrocefin, 10 nM of β-lactamases (class A: TEM-1; class C: P99, or class D: OXA-10), and variable concentrations of the inhibitors in a total volume of 100 μL. β-Lactamases were pre-incubated with the compounds at room temperature for 5 minutes, and the assay was initiated by the addition of nitrocefin. The inhibition of the enzyme activity by the compounds was determined by monitoring color change (from yellow to red) of nitrocefin after 20 minutes. Stock solutions of the compounds were prepared in dimethyl sulfoxide (DMSO). No more than 5% DMSO was present in assays, unless noted otherwise. B1aR Assay: The surface domain of B1aR (1 μM) was added to each inhibitor (at various concentrations) in 100 mM sodium phosphate, 50 mM sodium bicarbonate, at pH 7.0. The reaction mixtures were incubated at room temperature for 20 minutes. BOCILLIN FL, a fluorogenic ligand, was added to a concentration of 20 μM in a final volume of 20 μL. The mixtures were incubated at 37° C. for 5 minutes, at which point the reactions were quenched by the addition of 15 μL of the SDS sample buffer (125 mM Tris, 4% SDS, 20% glycerol, 2% 2-mercaptoethanol, pH 6.8), and were boiled for 4 minutes. The samples were loaded onto 15% SDS-PAGE, the gel was developed and scanned using a Storm 840® Fluorimager. The fluorescent bands of BOCILLIN FL-labeled B1aR^S were analyzed by Image Quant 5.2 software. PBP2 Assay: The PBP2 assay was performed according to the methods of Villegas-Esterada et al. (J. Am. Chem. Soc. 2008, 130, 9212-9213).

[4] = biological target: TEM-1 (class A β-lactamase) (Escherichia coli, UniProt P62593); assay: β-Lactamase assay (nitrocefin colour change), TEM-1; assay type: biochemical; details: Table 10; class symbols x/xx/xxx, key not given
TEM-1 (class A β-lactamase), sequence (P62593 24-286 limits assumed): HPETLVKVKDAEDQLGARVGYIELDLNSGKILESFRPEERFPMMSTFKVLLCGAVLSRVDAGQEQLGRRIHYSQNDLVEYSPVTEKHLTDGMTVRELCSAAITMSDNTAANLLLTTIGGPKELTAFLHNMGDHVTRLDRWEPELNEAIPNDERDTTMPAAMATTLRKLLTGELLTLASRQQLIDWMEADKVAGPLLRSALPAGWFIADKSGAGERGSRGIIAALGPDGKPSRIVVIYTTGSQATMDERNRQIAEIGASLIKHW
Method: as §1

[5] = biological target: P99 (class C β-lactamase) (Enterobacter cloacae, UniProt P05364); assay: β-Lactamase assay (nitrocefin colour change), P99; assay type: biochemical; details: Table 10; class symbols x/xx/xxx, key not given
P99 (class C β-lactamase), sequence (P05364 21-381): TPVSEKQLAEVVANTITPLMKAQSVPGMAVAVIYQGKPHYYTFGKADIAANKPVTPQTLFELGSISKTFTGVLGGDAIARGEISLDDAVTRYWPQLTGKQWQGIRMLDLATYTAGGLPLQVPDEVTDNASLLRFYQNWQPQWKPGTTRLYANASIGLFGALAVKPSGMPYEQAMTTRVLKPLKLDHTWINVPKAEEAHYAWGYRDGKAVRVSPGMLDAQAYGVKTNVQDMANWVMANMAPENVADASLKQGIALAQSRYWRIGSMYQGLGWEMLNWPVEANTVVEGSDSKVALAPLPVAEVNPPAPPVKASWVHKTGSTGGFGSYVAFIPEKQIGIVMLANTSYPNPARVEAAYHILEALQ
Method: as §1

[6] = Staphylococcus aureus, read-out: MIC

MIC [1, 6]: 250 µg/mL (≈ 536 µM)
SMILES: O=C(O)c1cccnc1C(=O)Nc1ccc(OCc2cccc(OC(F)(F)F)c2)c(Cl)c1 [Compound 423]

MIC [1]: 256 µg/mL (≈ 718 µM)
MIC [2]: 256 µg/mL (≈ 718 µM)
SMILES: CCCCOC(=O)c1ccc(NC(=O)Nc2ccccc2C(=O)O)cc1 [Compound 325]

MIC [1]: >2,000 μg/mL
MIC [2]: >2,000 μg/mL
SMILES: COCCOCCOc1ccc(NC(=O)c2c(Br)c(Br)c(Br)c(Br)c2C(=O)O)cn1 [Compound 403]

MIC [1, 6]: 250 µg/mL (≈ 489 µM)
SMILES: O=C(O)c1cccc([N+](=O)[O-])c1C(=O)Nc1ccc(OCc2cccc(OC(F)(F)F)c2)c(Cl)c1 [Compound 421]

MIC [1]: >2,000 μg/mL
MIC [2]: >2,000 μg/mL
SMILES: CC(Oc1ccc(NC(=O)c2ccccc2C(=O)O)cc1Cl)c1ccccc1 (centres unmarked) [Compound 379]

SMILES: CC(Oc1ccc(NC(=O)c2c(Cl)c(Cl)c(Cl)c(Cl)c2C(=O)O)cc1Cl)c1ccccc1 (centres unmarked) [Compound 381]
OXA-10 [3]: xxx
MIC [1, 6]: 32 µg/mL (≈ 60 µM)
inhibitory activity (in words) [1]: significant inhibitory activity
MIC [2, 6]: 16 µg/mL (≈ 30 µM)
inhibitory properties (in words) [2]: significant inhibitory properties

MIC [1, 6]: 16 µg/mL (≈ 62.6 µM)
SMILES: CCCCCCCCOc1ccc(N)cc1Cl [Compound 299]

SMILES: O=C1C2=C(SCCS2)C(=O)N1[C@@H](CO)[C@@H](O)c1ccc([N+](=O)[O-])cc1 [Compound 140]
OXA-10 [3]: xx
TEM-1 [4]: xx
P99 [5]: xx

OXA-10 [3]: xx
SMILES: O=C(O)CC1(CC(=O)Nc2ccc(Cl)c(C(F)(F)F)c2)CCCC1 [Compound 246]

MIC [1, 6]: 128 µg/mL (≈ 195 µM)
MIC [2, 6]: 128 µg/mL (≈ 195 µM)
SMILES: CCCCOC(=O)c1ccc(NC(=O)c2c(Br)c(Br)c(Br)c(Br)c2C(=O)O)cc1 [Compound 334]

SMILES: O=C(Nc1ccc(Cl)c(C(F)(F)F)c1)c1cccc([N+](=O)[O-])c1C(=O)O [Compound 86]
TEM-1 [4]: xx

MIC [1]: 500 µg/mL (≈ 1270 µM)
MIC [2]: 500 µg/mL (≈ 1270 µM)
SMILES: O=C(O)c1cccc([N+](=O)[O-])c1C(=O)Nc1ccc(OCc2ccccc2)nc1 [Compound 392]

P99 [5]: xxx
SMILES: CC(=O)OCC1=C(C(=O)O)N2C(=O)C(N3C(=O)C4=C(SCCS4)C3=O)C2SC1 (centres unmarked) [Compound 118]

MIC [1, 6]: 2000 µg/mL (≈ 4840 µM)
MIC [2, 6]: 2000 µg/mL (≈ 4840 µM)
SMILES: CCCCOC(=O)c1ccc(NC(=O)c2c(F)c(F)c(F)c(F)c2C(=O)O)cc1 [Compound 332]

MIC [1, 6]: 256 µg/mL (≈ 579 µM)
MIC [2, 6]: 256 µg/mL (≈ 579 µM)
SMILES: CCCCCCCCOc1ccc(NC(=O)c2c(F)c(F)c(F)c(F)c2C(=O)O)cn1 [Compound 344]

OXA-10 [3]: xx
MIC [1, 6]: 16 µg/mL (≈ 24.1 µM)
MIC [2, 6]: 8 µg/mL (≈ 12 µM)
SMILES: O=C(O)c1c(Br)c(Br)c(Br)c(Br)c1C(=O)Nc1ccc(OCc2ccccc2)nc1 [Compound 365]
inhibitory activity (in words) [1]: significant inhibitory activity
inhibitory properties (in words) [2]: significant inhibitory properties

OXA-10 [3]: xx
MIC [1, 6]: 16 µg/mL (≈ 35.1 µM)
P99 [5]: xx
SMILES: CCCCCCCCOc1ccc(N(C)C(=O)c2c(F)c(F)c(F)c(F)c2C(=O)O)cc1 [Compound 305]

SMILES: N#Cc1cccc(NC(=O)c2c(Br)c(Br)c(Br)c(Br)c2C(=O)[O-])c1.[Na+] [Compound 201]
OXA-10 [3]: xx
TEM-1 [4]: xx
P99 [5]: xxx

SMILES: O=C1c2c(Br)c(Br)c(Br)c(Br)c2C(=O)N1c1ccc(OCc2ccccc2)c(Cl)c1 [Compound 227]
OXA-10 [3]: xxx
TEM-1 [4]: xxx

MIC [1]: 128 µg/mL (≈ 323 µM)
MIC [2]: 128 µg/mL (≈ 323 µM)
SMILES: Cc1ccccc1COc1ccc(NC(=O)c2ccccc2C(=O)O)cc1Cl [Compound 383]

MIC [1]: >2,000 μg/mL
MIC [2]: >2,000 μg/mL
SMILES: COCCOCCOc1ccc(NC(=O)c2c(F)c(F)c(F)c(F)c2C(=O)O)cn1 [Compound 401]

SMILES: CCCCCCCCOc1ccc(N(C)C(=O)c2c(Cl)c(Cl)c(Cl)c(Cl)c2C(=O)OC)cc1 [Compound 282]
OXA-10 [3]: xxx

SMILES: CCCCCCCCOc1ccc(N2C(=O)c3c(Br)c(Br)c(Br)c(Br)c3C2=O)cc1 [Compound 230]
MIC [1, 6]: > 16 µg/mL

SMILES: O=C(O)c1c(Br)c(Br)c(Br)c(Br)c1C(=O)Nc1ccc(CO)cc1 [Compound 223]
OXA-10 [3]: xxx
TEM-1 [4]: xxx
P99 [5]: xxx
